Assay results as given in patent US12622899B2 (PureTech LYT 100, Inc., priority 2018, dated 2026).

Target: T1, CYP2D6 (Homo sapiens, UniProt P10635)
T1 construct: host or cells: heterologous cell systems (not specified)
Assay: In vitro stability with recombinant human CYP2D6
Type: in vitro ADME
Conditions: recombinant human isozyme; read-out: t1/2 following incubation with CYP2D6 (converted)
Method: The half-life (t½) of each test article was determined.

T1 sequence (P10635 whole entry): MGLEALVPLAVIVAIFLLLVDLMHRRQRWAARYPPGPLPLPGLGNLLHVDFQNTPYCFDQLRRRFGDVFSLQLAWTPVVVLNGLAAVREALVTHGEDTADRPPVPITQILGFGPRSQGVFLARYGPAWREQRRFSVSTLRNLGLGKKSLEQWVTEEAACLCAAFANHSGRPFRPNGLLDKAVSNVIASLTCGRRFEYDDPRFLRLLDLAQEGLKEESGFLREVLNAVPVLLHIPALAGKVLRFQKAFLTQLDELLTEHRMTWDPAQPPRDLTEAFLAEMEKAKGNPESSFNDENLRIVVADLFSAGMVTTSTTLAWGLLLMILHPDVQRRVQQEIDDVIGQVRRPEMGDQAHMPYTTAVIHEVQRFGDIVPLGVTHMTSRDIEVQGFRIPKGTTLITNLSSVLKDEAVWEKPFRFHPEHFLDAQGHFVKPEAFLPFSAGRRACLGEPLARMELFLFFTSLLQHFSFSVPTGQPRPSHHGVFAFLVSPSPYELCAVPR

Compound `[2H]C([2H])([2H])c1ccc(=O)n(-c2ccccc2)c1` [LYT-100, 5-(methyl-d3)-1-phenylpyridin-2-(1H)-one] has a half-life of 2.72 h.
